Measured values: ChEMBL document CHEMBL4431326, “Tumor Targeting with Novel 6-Substituted Pyrrolo [2,3-d] Pyrimidine Antifolates with Heteroatom Bridge Substitutions via Cellular Uptake by Folate Receptor α and the Proton-Coupled Folate Transporter and Inhibition of de Novo Purine Nucleotide Biosynthesis” (J Med Chem, 2016)
pIC50: −log10 of the molar value.

Test system: IGROV-1
Test: Antiproliferative activity against human IGROV1 cells expressing human FR-alpha/PCFT assessed as reduction in cell viability measured after 96 hrs by Cell-Titer Blue fluorescence analysis
Assay type: functional, cell-based
Settings: IGROV-1, 96 h

Compound `Nc1nc2[nH]c(CCNc3ccc(C(=O)N[C@@H](CCC(=O)O)C(=O)O)cc3)cc2c(=O)[nH]1` has a pIC50 of 8.57.
